Data from patent publication US11154536B2, “Pyrazoline-derived compound and its use in a weekly dosage regime against inflammation and pain derived from degenerative joint disease in mammals” (ECUPHAR N.V., priority 2014, dated 2021).

How the values were obtained:
[1] = system: urate crystal induced acute arthritis in the stifle (femorotibial) joint; test: Example 1: reversible urate crystal acute arthritis model in dog, E-6087 p.o. 4 mg/kg on D0 and D12; format: in vivo
Description: (§1) The experimental model used in both studies was the same and it consists in the induction of an acute arthritis through the inoculation of an urate crystal suspension in the stifle (femorotibial) joint of dogs. […] Partial or total inhibition of this reaction at a given time point after treatment administration is attributable to its pharmacological effect.
(§2) The reversible urate crystal arthritis model used in next examples has been previously described in the literature [Toutain P. L. et al. J. Vet. Pharmacol. Therap. 24, 43-55, 2001].
(§3) A sodium urate crystal suspension at a concentration of 10 mg·mL-1 was prepared as follows: • Uric acid sodium salt (Sigma) was weighed in a 100 mL graduated flask. • 0.9% NaCl solution was added to a final volume of 100 mL. • The suspension was mixed at room temperature by vortexing for approximately 5 min, by magnetic stirring for 5 min and was then sonicated for approximately 1 h. • The suspension was distributed in 1.5 mL vials and then autoclaved for 2 h at 120° C. • Finally the suspension was mixed by vortexing for 5 min, and sonicated for approximately 1 h.
(§4) The intra-articular injections were performed under general anaesthesia using Propovet multidose at a propofol dose of 6.5 mg.kg-1 by intravenous route without premedication. This induction medication was intended to result in a rapid onset anaesthesia with duration of about 10 minutes of unconsciousness and full recovery within approximately 30 minutes. For most of the dogs, Propovet multidose (half dose) was re-injected to maintain appropriate anaesthesia.
(§5) All urate crystal injections were introduced in the stifle (femorotibial) joint. The intra-articular injection was performed under aseptic conditions using a 30 mm long and 1 mm diameter sterile needle and a 2.5 mL syringe. The joint was checked for successful joint puncture, by synovial aspiration. One millilitre of urate crystal suspension was used for each intra-articular injection.
(§6) The duration of the induced inflammatory process was expected to be approximately 16 to 24 h and the average time of maximum lameness in untreated animals 2 to 3 hours after induction.
(§7) To assess the anti-inflammatory and analgesic effect of the test item, two clinical signs of arthritis were investigated: lameness and pain, respectively. Their intensity was determined using the following scoring systems:
This study was designed to determine whether the blood levels of E-6087 achieved after one single oral dose of E-6087 at 4 mg/kg in dog, do have some short and/or long-term antiinflammatory and analgesic effects. In addition, a second dose of E-6087 at 4 mg/kg was administered to evaluate the eventual effect derived from the accumulation of the molecule in blood.
The study was performed with seven male Beagle dogs randomly allocated to 3 groups.
During the study, the arthritis induction model was implemented on four occasions to each dog: • In dogs of Group I, on Days 0*, 7, 14** and 21. • In dogs of Group II, on Days 2**, 7, 14** and 21. • In dogs of Group III, on […].
(§8) According to the institutional ethics committee's recommendations, the first and third inoculations were done in the right stifle while the second and fourth inoculations were done in the left stifle. On each day of arthritis induction, the anti-inflammatory and analgesic efficacy of treatments was assessed at different time points (just before the inoculation, and 0.5, 1, 2, 3, 4, 6, 9 and 12 hours later). Two clinical signs of arthritis were assessed by using a scoring system at each time point: visual lameness (whilst standing and walking) and pain at (inoculated stifle) palpation. The median, minimal and maximal values for this parameter were determined for each group at each time point. Blood sampling was performed at different time points during the study in dogs of groups I and II in order to determine blood concentrations of E-6087.

[2] = Example 1: blood/plasma concentrations of E-6087 in treated dogs; format: in vivo, dog
Experimental: as §8

[3] = system: urate crystal induced acute arthritis in the stifle (femorotibial) joint; test: Example 2: urate crystal acute arthritis model in dogs, loading dose plus weekly maintenance doses of E-6087; format: in vivo, dog
Description: as §1, §2, §3, §4, §5, §6, §7
This study was designed to evaluate the effectiveness of two different treatment regimes for E-6087. In both cases it was administered a loading dose, followed by a weekly maintenance dose. […]
According to the institutional ethics committee's recommendations, the first and third inoculations were performed in the right stifle while the second inoculation was performed in the left stifle. On each day of arthritis induction, the anti-inflammatory and analgesic efficacy of treatments was assessed at different time points (just before the inoculation, and 0.5, 1, 2, 3, 4, 6, 9 and 12 hours later).
Two clinical signs of arthritis were assessed by using a scoring system at each time point: visual lameness (whilst standing and walking) and pain at (inoculated stifle) palpation. A combined visual lameness score, determined as the sum of the standing and walking lameness scores, was calculated and finally used for efficacy evaluation. The median, minimal and maximal values for this parameter were determined for each group at each time point. […]

[4] = system: naturally occurring osteoarthritis; test: Example 3: randomized, blinded multi-centre clinical trial in dogs with naturally occurring osteoarthritis (Clinical Sum Score); format: in vivo, dog; settings: loading dose 4 mg/kg then 2 mg/kg weekly; for P of reduction in CSS compared to the Placebo group: tablets
Experimental: One study (headed as example 3) has been performed to evaluate the efficacy of E-6087 in dogs with naturally occurring osteoarthritis under real field conditions. E-6087 was administered in tablets.
For a dog to be included in the study, the following criteria must be fulfilled: • 1. Owner's consent obtained prior to the start of any study activities. • 2. Age ≥12 months. • 3. Body weight ≥5 kg. • 4. Clinical signs of osteoarthritis for one (with the exception of the spine including spinal joints, cranium, and vertebral column) or more joints for at least 3 weeks. • 5. Confirmation by radiographic evidence of the presence of osteoarthritis in the dog. […] Minimum Clinical Sum Score (CSS) ≥6. If more than one joint was affected by OA, the most severely affected joint (with the exception of the spine) was assessed subsequently for efficacy.
Once included, dogs were randomly assigned to a treatment group. A practitioner was in charge of administering either a Placebo or E-6087 under two different dosage regimes to animals, while another one was in charge of blindly evaluating the progression of clinical signs during a 42-day follow-up.
A Clinical Sum Score (CSS) was used for the assessment of pain and lameness at several time points during the follow-up, including clinical assessments in this order for posture, lameness at walk, lameness at rot and pain at palpation/manipulation. The CSS was the sum of the individual scores.
This study was designed to evaluate the effectiveness of E-6087 under real field conditions. E-6087 was administered at a loading dose of 4 mg/kg followed by weekly maintenance doses of 2 mg/kg The study was designed as a controlled, randomized, blinded, multi-centre clinical trial.
A total of 60 osteoarthritic dogs were included in the E-6087 group and 60 dogs in the Placebo group. All dogs underwent a follow-up period of 42 days, with clinical evaluations of lameness and pain on days 0, 7, 14, 28 and 42. A Clinical Sum Score (CSS) was calculated for the lameness and pain parameters at each time point.

[5] = induction on day D7 after the first 4 mg/kg p.o. dose
[6] = induction two hours after the first 4 mg/kg p.o. dose (Day 0)
[7] = inductions on D14 and D21, after the second 4 mg/kg dose on D12

NS(=O)(=O)c1ccc(N2N=C(C(F)(F)F)CC2c2ccc(F)cc2F)cc1 (racemic) [E-6087]
Adverse reactions related to the administration ([1]; 4 mg/kg p.o. on D0 and D12, throughout the 28-day study): No adverse reactions
Persistence of anti-inflammatory/analgesic effect ([1]; after the second dose of 4 mg/kg (12 days after the first dose)): persisted at least during nine days
Lameness assessment (control of induced lameness) [1, 5]: slightly controlled
Pain assessment (control of induced pain at palpation) [1, 5]: slightly controlled
Lameness assessment (control of induced lameness) [1, 6]: not controlled at all
Pain assessment (control of induced pain at palpation) [1, 6]: not controlled at all
Lameness assessment (control of induced lameness) [1, 7]: absolutely controlled
Pain assessment (control of induced pain at palpation) [1, 7]: absolutely controlled
Plasma levels after the second dose ([2]; 4 mg/kg p.o. on D0 and D12, blood samples of treated dogs): increase in plasma levels
Blood levels 48 hours after administration ([2]; 4 mg/kg p.o., 48 hours after administration): significant blood levels
Inflammatory/painful reaction after arthritis induction ([3]; Group C, treatment regimen II (8 mg/kg loading, 4 mg/kg weekly), from Day 9 onwards): very mild reaction
Inflammatory/painful reaction after arthritis induction ([3]; Group C, treatment regimen II, induction on Day 0, two hours after the 8 mg/kg loading dose): severe inflammatory/painful reaction
Inflammatory/painful reaction after arthritis induction ([3]; Groups A and B, treatment regimen I (4 mg/kg Days 0 and 1, then 4 mg/kg weekly), inductions on Days 2, 4 and 9): mild inflammatory/painful reactions
Inflammatory/painful reaction after arthritis induction ([3]; Groups A and B, treatment regimen I, inductions on Days 14, 23 and 28): none (or very mild) reactions
Adverse reactions related to the administration ([3]; Groups A, B and C, throughout the study): No adverse reactions
P of reduction in CSS compared to the Placebo group ([4]; day 28, statistically significant): < 0.05
P of reduction in CSS compared to the Placebo group ([4]; day 42, highly significant): < 0.01
Mean Clinical Sum Score (CSS) ([4]; dropped under the threshold between day 7 and day 14): < 6
